Laboratory results taken from patent US20130123135A1, “Methods To Identify Modulators of TAS2R48 Receptors” (priority 2010, published 2013).
Read-outs that look alike come from different tables or passages of the source.

System: Sham transfected HEK293T/G16gust44 cells
Description: The above procedure was also carried out for HEK293T/G16gust44 cells, formed as described in WO 2004/055048 with the exception that no DNA was added during the process. These cells are termed Sham transfected cells.
On day 0, the HEK293T cells formed as described in example 2, were seeded in antibiotic-free growth medium (standard DMEM with 10% (v/v) heat-inactivated fetal bovine serum, 2 mM L-glutamine […], 100 units/ml penicillin, and 100 [g/ml streptomycin) into black wall/clear bottom 96-well plates, coated with poly(ethylenimine) (0.005% v/v) at a concentration of 15,000 cells per well and incubated for 48 hours in humidified atmosphere (37° C., 5% CO2).
Prior to performing the assay, the growth medium was discarded and the cells were left in a humidified atmosphere (37° C., 5% CO2) for 1 hour with 50 μl of loading buffer consisting of 1.5 μM Fluo-4 AM and […] probenicid (Sigma-Aldrich, St. Louis, Mo., US) in DMEM.
Following this the 96-well plate was washed 5 times with 100 μl of assay buffer (130 mM NaCl, 5 mM KCl, 10 mM 4-(2-hydroxyethyl)-1-piperazineethanesulfonic acid (HEPES), 2 mM CaCl2, and 5 mM dextrose, pH 7.4) per well, using an automated plate washer (BioTek).
The plate was then further incubated for 30 minutes at room temperature in the dark to allow for complete de-esterification of the Fluo-4. Afterwards the plate was washed 5 times with 100 μl of assay buffer per well, and reconstituted with 100 μl of assay buffer per well.
Cyclamate solutions ranging in concentration from 250 mM to 800 mM were prepared in assay buffer.
To test receptor activation 20 μl of one of these cyclamate test solutions was added to the assay buffer of at least one well of the 96 well plate. This step was repeated until all cyclamate solutions of differing concentrations had been added to at least one well. Care was taken to ensure that only one cyclamate solution was added per well. The resulting cyclamate concentrations in the well plates ranged in concentration from 25 mM to 80 mM (This is due to the dilution of the cyclamate solution in the assay buffer present in the well).
For assay reading, the plate was placed in a Fluorometric Imaging Plate Reader (FLIPR) (FLIPR-TETRA™, Molecular Devices, Sunnyvale, Calif., US).
For each well of the plate fluorescence was continuously monitored for 20 seconds to give a signal baseline (averaged to give F0) prior to cyclamate addition and for 120 seconds after cyclamate addition. The change in signal divided by F0 gives ΔF/F0 indicated in the table, with ΔF being the maximum signal occurring within the 120 seconds minus the minimum signal (occurring within the 120 seconds after cyclamate addition.
As a control the above procedure was also carried out for the sham transfected cells formed as described in example 2.

O=S(=O)(O)NC1CCCCC1 [Cyclamate, cyclamate]
Cyclamate Average ΔF/F0, Sham Transfected (cyclamate 25 mM in well): 0.186 | Cyclamate Average ΔF/F0, Sham Transfected (cyclamate 30 mM in well): 0.182 | Cyclamate Average ΔF/F0, Sham Transfected (cyclamate 35 mM in well): 0.198 | Cyclamate Average ΔF/F0, Sham Transfected (cyclamate 40 mM in well): 0.204 | Cyclamate Average ΔF/F0, Sham Transfected (cyclamate 45 mM in well): 0.194 | Cyclamate Average ΔF/F0, Sham Transfected (cyclamate 50 mM in well): 0.2 | Cyclamate Average ΔF/F0, Sham Transfected (cyclamate 55 mM in well): 0.182 | Cyclamate Average ΔF/F0, Sham Transfected (cyclamate 60 mM in well): 0.16 | Cyclamate Average ΔF/F0, Sham Transfected (cyclamate 65 mM in well): 0.17 | Cyclamate Average ΔF/F0, Sham Transfected (cyclamate 70 mM in well): 0.14 | Cyclamate Average ΔF/F0, Sham Transfected (cyclamate 75 mM in well): 0.11 | Cyclamate Average ΔF/F0, Sham Transfected (cyclamate 80 mM in well): 0.178
